Columns and labels:
Format in all cases: functional
SW-620 = test: Cytotoxicity against human SW620 cells assessed as cellular growth at 10 uM by SRB assay
OVCAR-3 = test: Cytotoxicity against human OVCAR3 cells assessed as cellular growth at 10 uM by SRB assay
[1] = Cytotoxicity against human NCI-ADR-RES cells assessed as cellular growth at 10 uM by SRB assay
ACHN = test: Cytotoxicity against human ACHN cells assessed as cellular growth at 10 uM by SRB assay
NCI-H226 = test: Cytotoxicity against human NCI-H226 cells assessed as cellular growth at 10 uM by SRB assay
CAKI-1 = test: Cytotoxicity against human Caki1 cells assessed as cellular growth at 10 uM by SRB assay
CCRF-CEM = test: Cytotoxicity against human CCRF-CEM cells assessed as cellular growth at 10 uM by SRB assay
MDA-MB-468 = test: Cytotoxicity against human MDA-MB-468 cells assessed as cellular growth at 10 uM by SRB assay
SNB-75 = test: Cytotoxicity against human SNB75 cells assessed as cellular growth at 10 uM by SRB assay
MCF7 = test: Cytotoxicity against human MCF7 cells assessed as cellular growth at 10 uM by SRB assay
HCT-15 = test: Cytotoxicity against human HCT15 cells assessed as cellular growth at 10 uM by SRB assay
K562 = test: Cytotoxicity against human K562 cells assessed as cellular growth at 10 uM by SRB assay
HOP-62 = test: Cytotoxicity against human HOP62 cells assessed as cellular growth at 10 uM by SRB assay
HCC 2998 = test: Cytotoxicity against human HCC2998 cells assessed as cellular growth at 10 uM by SRB assay
NCI-H460 = test: Cytotoxicity against human NCI-H460 cells assessed as cellular growth at 10 uM by SRB assay
TK-10 = test: Cytotoxicity against human TK10 cells assessed as cellular growth at 10 uM by SRB assay
A549 = test: Cytotoxicity against human A549 cells assessed as cellular growth at 10 uM by SRB assay
NCI-H23 = test: Cytotoxicity against human NCI-H23 cells assessed as cellular growth at 10 uM by SRB assay
NCI-H522 = test: Cytotoxicity against human NCI-H522 cells assessed as cellular growth at 10 uM by SRB assay
SF-268 = test: Cytotoxicity against human SF268 cells assessed as cellular growth at 10 uM by SRB assay

CC1(C)CCc2cc(-c3ccn(S(=O)(=O)c4ccc(Cl)cc4)n3)ccc2O1
Activity (SW-620): 87.74%
Activity (OVCAR-3): 84.01%
Activity [1]: 69.31%
Activity (ACHN): 89.36%
Activity (NCI-H226): 74.42%
Activity (CAKI-1): 64.29%
Activity (CCRF-CEM): 64.16%
Activity (MDA-MB-468): 48.91%
Activity (SNB-75): 92.32%
Activity (MCF7): 71.27%
Activity (HCT-15): 91.33%
Activity (K562): 52.43%
Activity (HOP-62): 92.92%
Activity (HCC 2998): 94.3%
Activity (NCI-H460): 73.79%
Activity (TK-10): 76.99%
Activity (A549): 67.37%
Activity (NCI-H23): 65.48%
Activity (NCI-H522): 66.19%
Activity (SF-268): 90.72%

CC1(C)CC(=O)c2cc3c(N)c(C(=O)Nc4ccccc4Cl)sc3nc2C1
Activity (SW-620): 108.49%
Activity (OVCAR-3): 121.58%
Activity [1]: 115.33%
Activity (ACHN): 114.15%
Activity (NCI-H226): 111.12%
Activity (CAKI-1): 132.4%
Activity (CCRF-CEM): 97.05%
Activity (MDA-MB-468): 110.28%
Activity (SNB-75): 118.5%
Activity (MCF7): 111.34%
Activity (HCT-15): 98.89%
Activity (K562): 96.43%
Activity (HOP-62): 116.65%
Activity (HCC 2998): 107.92%
Activity (NCI-H460): 113.94%
Activity (TK-10): 106.14%
Activity (A549): 102.64%
Activity (NCI-H23): 108.01%
Activity (NCI-H522): 102.8%
Activity (SF-268): 122.6%

Cc1ccc(C2=N/C(=C\c3ccccc3)C(=O)O2)cc1
Activity (SW-620): 102.61%
Activity (OVCAR-3): 105.55%
Activity [1]: 107.34%
Activity (ACHN): 104.91%
Activity (NCI-H226): 102%
Activity (CAKI-1): 101.22%
Activity (CCRF-CEM): 94.95%
Activity (MDA-MB-468): 99.59%
Activity (SNB-75): 90.22%
Activity (MCF7): 103.73%
Activity (HCT-15): 100.23%
Activity (K562): 106.22%
Activity (HOP-62): 108.81%
Activity (HCC 2998): 99.84%
Activity (NCI-H460): 109.3%
Activity (TK-10): 112.19%
Activity (A549): 107.01%
Activity (NCI-H23): 101.26%
Activity (NCI-H522): 95.94%
Activity (SF-268): 98.83%

Nc1c(C(=O)Nc2cccc(Cl)c2)sc2nc3c(cc12)C(=O)CCC3
Activity (SW-620): 31.28%
Activity (OVCAR-3): 10.31%
Activity [1]: 17.69%
Activity (ACHN): 54.19%
Activity (NCI-H226): 57.93%
Activity (CAKI-1): 40.31%
Activity (CCRF-CEM): 13.46%
Activity (MDA-MB-468): -10.56%
Activity (SNB-75): 25.91%
Activity (MCF7): 16.68%
Activity (HCT-15): 32.41%
Activity (K562): 22.78%
Activity (HOP-62): 47.04%
Activity (HCC 2998): 8.27%
Activity (NCI-H460): 10.27%
Activity (TK-10): 64.95%
Activity (A549): 28.25%
Activity (NCI-H23): 38%
Activity (NCI-H522): 14.59%
Activity (SF-268): 63.09%

CC1(C)CC(=O)c2cc3c(N)c(C(=O)NCc4ccccc4)sc3nc2C1
Activity (SW-620): 111.03%
Activity (OVCAR-3): 115.21%
Activity [1]: 93.37%
Activity (ACHN): 102.79%
Activity (NCI-H226): 86.42%
Activity (CAKI-1): 110.35%
Activity (CCRF-CEM): 99.55%
Activity (MDA-MB-468): 93.1%
Activity (SNB-75): 98.33%
Activity (MCF7): 87.02%
Activity (HCT-15): 100.56%
Activity (K562): 117.84%
Activity (HOP-62): 95.84%
Activity (HCC 2998): 101.88%
Activity (NCI-H460): 101.02%
Activity (TK-10): 106.71%
Activity (A549): 99.09%
Activity (NCI-H23): 97.31%
Activity (NCI-H522): 92.67%
Activity (SF-268): 102.72%

Clc1cccc(-c2nc(-c3cccs3)no2)c1
Activity (SW-620): 91.04%
Activity (OVCAR-3): 102.94%
Activity [1]: 103.45%
Activity (ACHN): 101.08%
Activity (NCI-H226): 97.3%
Activity (CAKI-1): 99.54%
Activity (CCRF-CEM): 91.91%
Activity (MDA-MB-468): 44.69%
Activity (SNB-75): 88.55%
Activity (MCF7): 33.74%
Activity (HCT-15): 105.75%
Activity (K562): 100.73%
Activity (HOP-62): 85.92%
Activity (HCC 2998): 102.03%
Activity (NCI-H460): 97.36%
Activity (TK-10): 74.63%
Activity (A549): 94.77%
Activity (NCI-H23): 89.88%
Activity (NCI-H522): 85.77%
Activity (SF-268): 102.09%

O=c1/c(=C/c2ccccc2)sc2nc(-c3ccc(Cl)cc3Cl)nn12
Activity (SW-620): 101.67%
Activity (OVCAR-3): 105.06%
Activity [1]: 111.31%
Activity (ACHN): 109.45%
Activity (NCI-H226): 100.81%
Activity (CAKI-1): 96.38%
Activity (CCRF-CEM): 105.93%
Activity (MDA-MB-468): 120.34%
Activity (SNB-75): 80.26%
Activity (MCF7): 100.42%
Activity (HCT-15): 112.75%
Activity (K562): 99.39%
Activity (HOP-62): 95.63%
Activity (HCC 2998): 122.44%
Activity (NCI-H460): 106.69%
Activity (TK-10): 98.86%
Activity (A549): 103.15%
Activity (NCI-H23): 102.55%
Activity (NCI-H522): 99.33%
Activity (SF-268): 107.58%

CC1(C)CC(=O)c2cc3c(N)c(C(=O)Nc4ccc(F)cc4)sc3nc2C1
Activity (SW-620): 106.24%
Activity (OVCAR-3): 117.81%
Activity [1]: 104.25%
Activity (ACHN): 112.82%
Activity (NCI-H226): 102.68%
Activity (CAKI-1): 98.34%
Activity (CCRF-CEM): 107.91%
Activity (MDA-MB-468): 112.64%
Activity (SNB-75): 114.82%
Activity (MCF7): 105.49%
Activity (HCT-15): 100.72%
Activity (K562): 106.71%
Activity (HOP-62): 114.29%
Activity (HCC 2998): 105.43%
Activity (NCI-H460): 104.48%
Activity (TK-10): 105.13%
Activity (A549): 105.88%
Activity (NCI-H23): 102%
Activity (NCI-H522): 102.43%
Activity (SF-268): 124.1%

COc1ccc(S(=O)(=O)n2ccc(-c3ccc4c(c3)CCC(C)(C)O4)n2)cc1
Activity (SW-620): 90.28%
Activity (OVCAR-3): 81.18%
Activity [1]: 57.3%
Activity (ACHN): 104.15%
Activity (NCI-H226): 71.38%
Activity (CAKI-1): 63.3%
Activity (CCRF-CEM): 58.86%
Activity (MDA-MB-468): 36.58%
Activity (SNB-75): 83.99%
Activity (MCF7): 73.48%
Activity (HCT-15): 97.58%
Activity (K562): 55.64%
Activity (HOP-62): 112.43%
Activity (HCC 2998): 88.92%
Activity (NCI-H460): 75.37%
Activity (TK-10): 68.22%
Activity (A549): 73.96%
Activity (NCI-H23): 59.58%
Activity (NCI-H522): 55.57%
Activity (SF-268): 94.69%

O=C(Nc1nc2ccc(Cl)cc2s1)c1ccc(Cl)cc1
Activity (SW-620): 103.76%
Activity (OVCAR-3): 112.95%
Activity [1]: 100.28%
Activity (ACHN): 96.94%
Activity (NCI-H226): 84.73%
Activity (CAKI-1): 81.52%
Activity (CCRF-CEM): 96.23%
Activity (MDA-MB-468): 114.39%
Activity (SNB-75): 100.74%
Activity (MCF7): 99.61%
Activity (HCT-15): 98.99%
Activity (K562): 96.27%
Activity (HOP-62): 103.16%
Activity (HCC 2998): 106.96%
Activity (NCI-H460): 98.55%
Activity (TK-10): 131.87%
Activity (A549): 94.26%
Activity (NCI-H23): 91.71%
Activity (NCI-H522): 99.64%
Activity (SF-268): 112.46%

COc1ccc(NC(=O)c2sc3nc4c(cc3c2N)C(=O)CCC4)cc1
Activity (SW-620): 111.85%
Activity (OVCAR-3): 103.75%
Activity [1]: 103.46%
Activity (ACHN): 105.22%
Activity (NCI-H226): 95.31%
Activity (CAKI-1): 97.06%
Activity (CCRF-CEM): 88.17%
Activity (MDA-MB-468): 87.19%
Activity (SNB-75): 103.13%
Activity (MCF7): 104.14%
Activity (HCT-15): 100.8%
Activity (K562): 116.6%
Activity (HOP-62): 112.48%
Activity (HCC 2998): 94.7%
Activity (NCI-H460): 96.07%
Activity (TK-10): 103.14%
Activity (A549): 97.44%
Activity (NCI-H23): 96.26%
Activity (NCI-H522): 100.22%
Activity (SF-268): 109.11%

O=c1/c(=C/c2ccccc2Cl)sc2nc(-c3ccccc3)nn12
Activity (SW-620): 107.46%
Activity (OVCAR-3): 108.39%
Activity [1]: 90.47%
Activity (ACHN): 97.57%
Activity (NCI-H226): 100.04%
Activity (CAKI-1): 98.22%
Activity (CCRF-CEM): 56.07%
Activity (MDA-MB-468): 96.99%
Activity (SNB-75): 64.38%
Activity (MCF7): 91.04%
Activity (HCT-15): 79.8%
Activity (K562): 48.93%
Activity (HOP-62): 103.3%
Activity (HCC 2998): 104.88%
Activity (NCI-H460): 99.8%
Activity (TK-10): 123.92%
Activity (A549): 87.55%
Activity (NCI-H23): 86.7%
Activity (NCI-H522): 85.92%
Activity (SF-268): 91.24%

COc1ccc2[nH]c(C(=O)NCc3ccccc3)cc2c1
Activity (SW-620): 107.28%
Activity (OVCAR-3): 112.21%
Activity [1]: 102.25%
Activity (ACHN): 94.48%
Activity (NCI-H226): 96.37%
Activity (CAKI-1): 87.15%
Activity (CCRF-CEM): 85.19%
Activity (MDA-MB-468): 99.1%
Activity (SNB-75): 87.91%
Activity (MCF7): 83.2%
Activity (HCT-15): 94.58%
Activity (K562): 92.68%
Activity (HOP-62): 104.71%
Activity (HCC 2998): 104.4%
Activity (NCI-H460): 110.92%
Activity (TK-10): 120.94%
Activity (A549): 100.34%
Activity (NCI-H23): 89.11%
Activity (NCI-H522): 90.46%
Activity (SF-268): 114.89%
